Experimental data taken from patent US20260034170A1, “NITRIC OXIDE TOPICAL APPLICATION APPARATUS AND METHODS” (NOxy Health Products, Inc., priority 2016, published 2026).

System: bacteria on a surface, such as a person's skin
Assay: dose of nitric oxide required to kill bacteria on a surface

Compound: [N]=O [nitric oxide]
- dose required to kill bacteria on a surface: ≥ 320 ppm
